{
  "source": "patent US20090088371A1",
  "about": "“COMBINATION THERAPY WITH SYK KINASE INHIBITOR” (Rigel Pharmaceuticals, Inc., priority 2007, published 2009)",
  "key": {"C57BL/6 mice": {"test_system": "C57BL/6 mice", "experiment": "Anti-CD41 antibody-induced thrombocytopenia in C57BL/6 mice, platelet counts (Examples 1 and 3, FIG. 1)", "format": "in vivo, mouse", "details": "for Platelet count versus mice treated with CD41 antibody alone: first dose 30 minutes prior to platelet-depleting antibody, 24 h", "description": "On Day 1 of each study, mice were rendered thrombocytopenic by injection with rat anti-mouse CD41 antibody (IgG1, Clone MWReg30) by the intraperitoneal (IP) route. The platelet depleting antibody (rat anti-mouse GPIIb, also referred to as anti-integrin αIIb or anti-CD41) was administered […] treatment with Compound I on Day 1. Mice in control groups either received nothing (naïve), saline only, or an isotype-matched irrelevant control antibody (nonspecific rat anti-mouse IgG1, Clone R3-34, BD, San Jose, Calif.).\nMice received vehicle or Compound 1 at various dose levels (0, 20, 40, or 80 mg/kg, PO, 5 mL/kg) 30 minutes prior to the platelet depleting antibody, then again 8 h, 16 h, and 23 h after induction of thrombocytopenia. At 24 h after administration of the anti-CD41 platelet-depleting antibody, blood was harvested from all groups by cardiocentesis to assess the platelet counts or drug levels in the plasma. An aliquot from each sample was transferred to a plasma separator tube and the separated plasma was stored at −80° C. for analysis. Blood was placed indirectly on ice for delivery. Platelet enumeration was performed using Bayer Advia 120 Bayer Advia 120 hematology system (Bayer, Tarrytown, N.Y.) by Quality Clinical Laboratories (QCL, Mountain View, Calif.).\nSystemic drug exposures were determined at sacrifice with the final dose being given on the evening of Day 1 (8 h prior to blood collection) or on the morning of Day 2 (1 h prior to blood collection). Satellite animals treated with Compound 1 and not receiving platelet-depleting antibody were added to obtain a more complete PK profile.\nSignificant differences between vehicle and Compound I-treated groups were determined statistically using the GraphPad Prism 4.0® software package, unless otherwise stated. In general, Prism 4.0® uses the standard calculations as detailed in D. G. Altman, Practical Statistics for Medical Research, 1991, Chapman and Hall. Platelet count data was analyzed using Kruskal Wallis Nonparametric test with Dunn's multiple group post-hoc test to compare the rank sums, unless otherwise noted.\nIn FIG. 1, each data point represents platelet counts for an individual mouse administered a single IP injection of 5 μg of CD41 platelet depleting antibody (n=11-12 per group). Mice were bled 24 hours post antibody administration and platelet counts were performed using Bayer Advia 120 analyzer. Mice were given vehicle or indicated doses of Compound 1. Platelet-depleting antibody was administered 30 minutes after the first Compound 1 or vehicle dose on Day 1."}, "CD-1 mice": {"test_system": "CD-1 mice", "experiment": "Antibody-mediated thrombocytopenia in CD-1 mice, platelet counts by flow cytometry (Examples 2 and 4, FIG. 2, Table 1)", "format": "in vivo, mouse", "details": "for Individual Animal Platelet Count / Platelet Count Mean: 24 hours following anti-αIIb treatment; for Individual Animal Platelet Count: one value per animal; for Platelet Count Mean: n=6", "description": "CD-1 mice, approximately 10 weeks of age, were obtained from Charles River (Montreal, PQ, Canada). All mice, with the exception of the naïve group, were injected with 2 μg rat anti-mouse GPIIb (also referred to as anti-integrin αIIb or anti-CD41) antibody (specific for GPIIb, clone MWReg30, rat IgG1, κ, PharMingen, Missassuaga, ON, Canada) in 200 μL PBS on Day 1. Platelets were enumerated on Day 2 (24 hours following injection of anti-platelet antibody).\nDuring the 3 day experiment (Day O— Day 2), Compound I-treated mice were given the indicated doses of Compound 1 by oral gavage once on Day 0, twice on Day 1 and once on Day 2. Control animals were given an equal volume of vehicle. For the IVIg group, mice were injected intraperitoneally (IP) with 2 g/kg Gamunex IVIg (Bayer, Elkhart, Ill.) once on Day 0. Two concentrations of Compound 1 (3.08 and 4.94 mg/mL) were formulated with 0.1% CMC Na-0.1% Methylparaben-0.02% Propylparaben-H2O. One day prior to platelet depletion, treatment began. Mice were treated orally twice daily (bid.) with Compound 1 (30.8 or 49.4 mg/kg of body weight per dose, n=6) at a dose volume of 10 mL/kg. IVIg (2 g/kg) was used as a reference agent and was administered IP as described previously (Crow et al., 2003).\nTwo hours following the last treatment of Compound 1 on Day 2, all mice were bled via the saphenous vein; 50 μL of blood was collected into 450 μL PBS/1% EDTA. The blood was further diluted to a final dilution of 1/12,000 in PBS/1% EDTA. Platelets were enumerated by flow cytometry according to Crow et al., 2001. Briefly, the samples were acquired for 2 minutes on a flow-rate-calibrated FACScan flow cytometer (Becton-Dickinson, San Jose, Calif.), using forward scatter (FSC) versus side scatter (SSC) to gate platelets.\nAll values in the text and figures are expressed as mean±standard error of the mean (SEM) for n=6 mice/group unless noted otherwise, and n represents the number of mice. Differences between treatment and control groups were compared using the 2-tailed Student's t-test using GraphPad Prism Inc., software ver. 4.0 (San Diego, Calif., USA).\nOn Day 0, mice were pre-treated with nothing (Nil), 0.25 mL Vehicle twice (8 hrs apart) or the indicated doses of Compound 1 (in 0.25 mL vehicle) or 2 g/kg IVIg. On Day 1, the above treatments were repeated except for IVIg. All mice also received 2 μg anti-platelet antibody on Day 1. On Day 2, all mice were bled for platelet enumeration by flow cytometry as described. n=6 mice per group. Data are expressed as mean±SEM."}},
  "note": "“And” between values parts separate entries of the source, which are not always exact repeats. Identical values can stand only once. “Also recorded” adds a separate entry of the source.",
  "data": [
    {"smiles": "COc1cc(Nc2ncc(F)c(Nc3ccc4c(n3)N(COP(=O)(O)O)C(=O)C(C)(C)O4)n2)cc(OC)c1OC", "note": "[Compound 1]", "values": [
      {"measurement": "Platelet count versus the 80 mg/kg group", "setting": "C57BL/6 mice; 20 mg/kg PO with platelet depleting antibody, p<0.01", "result": "significantly lower"},
      {"measurement": "Platelet count versus mice treated with CD41 antibody alone", "setting": "C57BL/6 mice; 40 mg/kg PO, p<0.05", "result": "significantly higher platelet count"},
      {"measurement": "Platelet count versus mice treated with CD41 antibody alone", "setting": "C57BL/6 mice; 80 mg/kg PO, p<0.001", "result": "significantly higher platelet count"},
      {"measurement": "Dose dependence of inhibition of platelet depletion", "setting": "C57BL/6 mice; 20, 40, 80 mg/kg PO, C57BL/6 mice", "result": "dose-dependent inhibition of platelet depletion"},
      {"measurement": "Inhibition of platelet depletion compared with vehicle alone", "setting": "CD-1 mice; 30.8 mg/kg group, p=0.001, Day 2", "result": "highly significant"},
      {"measurement": "Inhibition of platelet depletion compared with vehicle alone", "setting": "CD-1 mice; 49.4 mg/kg group, p=0.008, Day 2", "result": "highly significant"},
      {"measurement": "Dose dependence of the effect on platelet counts", "setting": "CD-1 mice; 30.8 versus 49.4 mg/kg, difference not significant (p=0.9)", "result": "did not appear to be dose-dependent"},
      {"measurement": "Individual Animal Platelet Count", "setting": "CD-1 mice; Compound 1 30.8 mg/kg oral gavage, CD-1 mice, 30.8 mg/kg", "result": "3.92e+11 L⁻¹ and 3.98e+11 L⁻¹ and 4.57e+11 L⁻¹ and 5.84e+11 L⁻¹ and 6.02e+11 L⁻¹ and 6.79e+11 L⁻¹"},
      {"measurement": "Platelet Count Mean", "setting": "CD-1 mice; Compound 1 30.8 mg/kg oral gavage", "result": "5.19e+11", "unit": "L⁻¹"},
      {"measurement": "Individual Animal Platelet Count", "setting": "CD-1 mice; Compound 1 49.4 mg/kg oral gavage, CD-1 mice, 49.4 mg/kg", "result": "4.11e+11 L⁻¹ and 4.37e+11 L⁻¹ and 4.33e+11 L⁻¹ and 4.98e+11 L⁻¹ and 9.31e+11 L⁻¹ and 5.1e+11 L⁻¹"},
      {"measurement": "Platelet Count Mean", "setting": "CD-1 mice; Compound 1 49.4 mg/kg oral gavage", "result": "5.37e+11", "unit": "L⁻¹"},
      {"measurement": "Effect on platelet depletion by anti-platelet antibody", "setting": "CD-1 mice; Compound 1 treatment prior to and following CD41 platelet depleting antibody, CD-1 mice, Day 2", "result": "reduced depletion of platelets; also recorded: inhibited the reduction in platelet count"}
    ]}
  ]
}
